A word on the mortality: it is the share of the test organisms that died. In general, IC50 refers to the midpoint of a concentration-inhibition curve. Usually bioavailability stands for dose-corrected exposure relative to a reference, in per cent. By Cmax is commonly meant the maximum level reached in the sampled fluid or tissue. A word on the EC50: it is the concentration giving half of the maximal effect.

Each structure is given as a SMILES string.

Data set [1] concerns Schistosoma mansoni. The data set can be described thus: Antischistosomal activity against Schistosoma mansoni infected in mouse assessed as worm burden reduction at 200 mg/kg, po administered as single dose and measured after 17 to 21 days relative to control. Particulars: time 17-21 day. In kind it is functional. On the set-up: scale not given: the % may be the effect or the level left.

The test system of data set [2] is Schistosoma mansoni. Briefly: Schistosomicidal-activity against Schistosoma mansoni LE assessed as seperation of worm couples at 25 uM measured within 120 hrs relative to control. In kind it is functional.
The subject of data set [3] is Schistosoma mansoni. Briefly: Antischistosomal activity against Schistosoma mansoni infected in Swiss albino mouse assessed as reduction in worm burden at 20 mg/kg, po administered for 5 days relative to control. The arrangement: scale not given: the % may be the effect or the level left. Conditions: time 5 day. In kind it is functional.
For data set [4], the system named is Schistosoma mansoni. Briefly: Antischistosomal activity against Schistosoma mansoni infected in Swiss albino mouse assessed as reduction in intestinal tissue egg burden at 20 mg/kg, po administered for 5 days relative to control. The class given is functional. The arrangement: scale not given: the % may be the effect or the level left. Particulars: time 5 day.

Data set [5] concerns Schistosoma mansoni. The data set can be described thus: Potentiation of praziquantel-induced antischistosomal activity against Schistosoma mansoni infected in Swiss albino mouse assessed as worm burden at 20 mg/kg, po administered for 5 days (reference value: 60%). The class given is functional. Particulars: time 5 day.
Data set [6] has as its system Schistosoma mansoni. The data set can be described thus: Antischistosomal activity against male Schistosoma mansoni assessed as worm killing effect at 100 uM measured after 24 hrs by phase-contrast microscopy relative to control. The class given is functional.
Data set [7] concerns Schistosoma mansoni. Briefly: Antischistosomal activity against female Schistosoma mansoni assessed as worm killing effect at 100 uM measured after 24 hrs by phase-contrast microscopy relative to control. The class given is functional.
For data set [8], the system named is Schistosoma mansoni. The data set can be described thus: Potentiation of praziquantel-induced antischistosomal activity against Schistosoma mansoni infected in Swiss albino mouse assessed as intestinal egg burden at 20 mg/kg, po administered for 5 days (reference value: 67%). In kind it is functional. Conditions: time 5 day.
For data set [9], the system named is Schistosoma mansoni. Briefly: Antischistosomal activity against Schistosoma mansoni assessed as worm killing effect at 100 uM measured after 24 hrs by phase-contrast microscopy relative to control. The class given is functional.
Data set [10] has as its system Schistosoma mansoni. Briefly: Antischistosomal activity against Schistosoma mansoni LE assessed as worm mortality at 100 ug/ml measured after 144 hrs by inverted microscopic method relative to control. In kind it is functional. Conditions: dose 100 µg/ml.
The subject of data set [11] is Schistosoma mansoni. Briefly: Antischistosomal activity against Schistosoma mansoni LE assessed as worm mortality at 100 ug/ml measured after 72 hrs by inverted microscopic method relative to control. The class given is functional.
Data set [12] deals with Schistosoma mansoni. The data set can be described thus: Antischistosomal activity against Schistosoma mansoni NTS incubated for 72 hrs by microscopic method. In kind it is functional, organism-based.
Data set [13] relates to Schistosoma mansoni. Briefly: Antischistosomal activity against adult Schistosoma mansoni incubated for 72 hrs by microscopic method. In kind it is functional, organism-based.
The nature of data set [14]: Oral bioavailability in C57BL/6 mouse at 20 mg/kg. In kind it is ADME, organism-based. Particulars: in vivo.
In data set [15] the test system is Schistosoma mansoni. The data set can be described thus: Antischistosomal activity against Schistosoma mansoni incubated for 72 hrs by microscopic method. The class given is functional, organism-based.
Data set [16] deals with Schistosoma mansoni. The data set can be described thus: Antischistosomal activity against adult Schistosoma mansoni infected in NMRI mouse assessed as worm burden reduction at 400 mg/kg, po administered as single dose and measured at 21 days post treatment relative to control. The class given is functional. On the set-up: scale not given: the % may be the effect or the level left. Conditions: time 21 day.

Data set [17] can be described thus: Volume of distribution in C57BL/6 mouse at 20 mg/kg, po. In kind it is ADME, organism-based. Particulars: in vivo.
Data set [18] can be described thus: Cmax in C57BL/6 mouse at 20 mg/kg, po measured after 3 hrs. The class given is ADME, organism-based. The arrangement: route oral, dose 20 mg/kg, time 3 hrs. Conditions: in vivo.
In a further data set the test system is Schistosoma japonicum. Briefly: Antischistosomal activity against juvenile Schistosoma japonicum assessed as reduction in worm vitality at 25 uM incubated for 72 hrs relative to control. In kind it is functional. The arrangement: scale not given: the % may be the effect or the level left.
Data set [19] is described as follows: Half life in C57BL/6 mouse at 20 mg/kg, po. The class given is ADME, organism-based. Conditions: in vivo.
In the next data set the test system is Schistosoma haematobium. Briefly: Antischistosomal activity against Schistosoma haematobium at 10 uM measured after 72 hrs relative to control. In kind it is functional.
Data set [20] deals with Schistosoma mansoni. Briefly: Antischistosomal activity against adult Schistosoma mansoni Liberian at 10 uM measured after 48 hrs relative to control. The class given is functional.
In data set [21] the test system is Schistosoma mansoni. The data set can be described thus: Antischistosomal activity against Schistosoma mansoni Liberian NTS at 10 uM measured after 24 hrs relative to control. The class given is functional.
Data set [22] concerns Schistosoma mansoni. Briefly: microbe, parasite or virus in culture. Conditions: 72 h.
Description: Antischistosomal activity against Schistosoma mansoni incubated for 72 hrs by inverted microscopic method
Data set [23] deals with Schistosoma mansoni. Briefly: microbe, parasite or virus in culture. Conditions: Liberian, 72 h.
Description: Antischistosomal activity against Schistosoma mansoni Liberian NTS incubated for 72 hrs by microscopic method
Data set [24] has as its system Schistosoma mansoni. Briefly: Antischistosomal activity against adult Schistosoma mansoni Liberian at 10 uM measured after 24 hrs relative to control. The class given is functional.
For data set [25], the system named is Schistosoma mansoni. Briefly: Schistosomicidal-activity against Schistosoma mansoni infected in NIH-Swiss mouse assessed as reduction in skin staged worm burden at 10 mg/kg, ip administered daily for 5 consecutive days relative to control. The arrangement: scale not given: the % may be the effect or the level left. In kind it is functional.
For data set [26], the system named is Schistosoma mansoni. Briefly: schistosomicidal-activity against adult Schistosoma mansoni infected in NIH-Swiss mouse assessed as reduction in worm burden at 10 mg/kg, ip administered daily for 5 consecutive days relative to control. On the set-up: scale not given: the % may be the effect or the level left. In kind it is functional. Particulars: time 5 day.

Data set [27] concerns Schistosoma mansoni. The data set can be described thus: schistosomicidal-activity against Schistosoma mansoni infected in NIH-Swiss mouse assessed as reduction in liver-staged worm burden at 10 mg/kg, ip administered daily for 5 consecutive days relative to control. The class given is functional. The arrangement: scale not given: the % may be the effect or the level left.

Data set [28] concerns Schistosoma mansoni. Briefly: Antischistosomal activity against Schistosoma mansoni infected in NMRI mouse assessed as worm burden reduction at 200 mg/kg, po administered as single dose measured after 16 to 18 days. In kind it is functional, organism-based. The arrangement: scale not given: the % may be the effect or the level left. Particulars: time 16-18 day.
For data set [29], the system named is Schistosoma mansoni. The data set can be described thus: Schistosomicidal-activity against adult Schistosoma mansoni incubated overnight followed by replacement of medium and measured on day 5 by stereomicroscopy. The class given is functional, organism-based. Particulars: 120 h.
In data set [30] the test system is Schistosoma mansoni. Briefly: Antischistosomal activity against adult Schistosoma mansoni LE assessed as worm mortality at 100 ug/ml incubated for 72 hrs by inverted microscopic method relative to control. The class given is functional.
Data set [31] deals with Schistosoma mansoni. The data set can be described thus: Antischistosomal activity against Schistosoma mansoni LE schistosomula assessed as reduction in worm vitality measured every 24 hrs by inverted microscopy. In kind it is functional, organism-based.
Data set [32] deals with Schistosoma mansoni. The data set can be described thus: Antischistosomal activity against adult Schistosoma mansoni LE assessed as reduction in worm vitality measured every 24 hrs by inverted microscopy. In kind it is functional, organism-based.

As for `NC(=O)c1nc(-c2ccc(C(F)(F)F)c(F)c2)cnc1Nc1cnc(OCCCN2CCCCC2)nc1`, the Activity in the data set with Schistosoma mansoni [1] is 37.6%.

In the case of `COc1cc([C@@H]2OC(=O)[C@@H]3[C@H]2C(=O)O[C@H]3c2cc(OC)c(O)c(OC)c2)cc(OC)c1O`, the Activity in the data set with Schistosoma mansoni [2] is 100%.

For the compound `Brc1ccc(-c2c[nH]c(-c3ccccn3)n2)cc1`, the Activity is listed as 29% in the data set on Schistosoma mansoni [3]; 35% with Schistosoma mansoni [4]; 96% in the data set on Schistosoma mansoni [5]; 100% in the data set with Schistosoma mansoni [6]; 0% in the data set on Schistosoma mansoni [7]; 83% in the data set on Schistosoma mansoni [8]. Also, the Activity with Schistosoma mansoni [9] is given as 56%.

Take `COc1ccc(-c2cs/c(=N/N=C/CN3C(=O)c4ccccc4C3=O)[nH]2)cc1`: in the data set with Schistosoma mansoni [10], the Activity is 100%. In the data set with Schistosoma mansoni [11], the mortality at 100 µg/mL turned out to be 60%.

On to `O=C(Nc1cc(C(F)(F)F)ccc1Cl)c1ccccc1O`, for which the half-inhibitory concentration (IC50) in the data set with Schistosoma mansoni [12] is 200 nM; in the data set on Schistosoma mansoni [13], 600 nM.

Consider `N#Cc1c(C(F)(F)F)cc(NCc2ccccc2F)n2c1nc1cc(Cl)c(Cl)cc12`, for which the bioavailability in data set [14] was below 1%. In the data set with Schistosoma mansoni [15], this compound yielded an IC50 of 380 nM. The Activity is 69% with Schistosoma mansoni [16] and below 1% with Schistosoma japonicum. Also, the Vd in data set [17] worked out at 0.18 L/kg. In data set [18], this compound registered a maximum concentration (Cmax) of 300 nM. This compound also displayed a t1/2 in data set [19] of 18 min.

Regarding `CN1CCN(CCCOc2ncc(Nc3ncc(-c4ccc(C(F)(F)F)c(F)c4)nc3C(N)=O)cn2)CC1`, the Activity with Schistosoma haematobium is given as 100%; with Schistosoma mansoni [20] it was 100%; in the data set on Schistosoma mansoni [21] it was 100%; in the data set on Schistosoma mansoni [24], 70%. Besides, the IC50 with Schistosoma mansoni [22] is 3000 nM; with Schistosoma mansoni [23], 800 nM.

As for `N#Cc1c(-c2ccccc2)no[n+]1[O-]`, the figures for the Activity in the data set on Schistosoma mansoni [25], in the data set on Schistosoma mansoni [26] and with Schistosoma mansoni [27] were 99%, 94% and 88%, respectively.

Turning to `Fc1ccc(Cl)cc1-c1nc(Nc2ccncc2)c2nccnc2n1`, in the data set with Schistosoma mansoni [28], the Activity stood at 51.6%.

With `O=C(C1CCCCC1)N1CC(=O)N2CCc3sccc3C2C1` (centres undefined), the EC50 with Schistosoma mansoni [29] stood at 900 nM.

On to `O=C1c2ccccc2C(=O)N1C/C=N/N=c1\[nH]c(-c2ccccc2)cs1`, for which the mortality at 100 µg/mL in the data set with Schistosoma mansoni [30] was 100%. The values for the EC50 with Schistosoma mansoni [31] and in the data set on Schistosoma mansoni [32] were 5150 nM and 37500 nM, respectively.

The values above are taken from ChEMBL document CHEMBL4811216, “Chemotherapy for human schistosomiasis: how far have we come? What's new? Where do we go from here?” (RSC Med Chem, 2020).
